Several values for one entry are separate records, joined by “and”; a condition that tells them apart may be missing. Equal values may be shown once.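 Compound exposure: 48 hours, 5 concentrations, 96-well plates. GI50 is the concentration that inhibits growth by half. Definition used: TGI = concentration required for complete inhibition of growth.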
Experiments:
Assay in all cases: NCI-60 cell line screen, 48 h
OVCAR-8 ovarian = test system: OVCAR-8 ovarian
NCI-H23 lung = test system: NCI-H23 lung
HCT-15 colon = test system: HCT-15 colon
UACC-257 melanoma = test system: UACC-257 melanoma
HCC-2998 colon = test system: HCC-2998 colon
A549 NSCLC = test system: A549 NSCLC
HOP-62 NSCLC = test system: HOP-62 NSCLC
ACHN renal = test system: ACHN renal
U251 CNS = test system: U251 CNS
SR leukemia = test system: SR leukemia

| Structure (SMILES) | GI50 (OVCAR-8 ovarian) [µM] | TGI (OVCAR-8 ovarian) [µM] | GI50 (NCI-H23 lung) | TGI (NCI-H23 lung) [µM] | TGI (HCT-15 colon) [µM] | GI50 (UACC-257 melanoma) [µM] | TGI (UACC-257 melanoma) [µM] | GI50 (HCC-2998 colon) [µM] | TGI (HCC-2998 colon) [µM] | GI50 (A549 NSCLC) | TGI (A549 NSCLC) [µM] | GI50 (HOP-62 NSCLC) | TGI (HOP-62 NSCLC) [µM] | TGI (ACHN renal) [µM] | TGI (U251 CNS) | GI50 (HCT-15 colon) [µM] | GI50 (ACHN renal) [µM] | GI50 (U251 CNS) [µM] | TGI (SR leukemia) [µM] | GI50 (SR leukemia) [µM] |
| --- | --- | --- | --- | --- | --- | --- | --- | --- | --- | --- | --- | --- | --- | --- | --- | --- | --- | --- | --- | --- |
| COc1cc(/C=C/c2cc(O)c(C/C=C(\C)CC/C=C(\C)CO)c(O)c2)cc2c1O[C@]1(C)CC[C@@H](O)C(C)(C)[C@H]1C2 | > 53.3 | > 82.3 | 4.93 µM and 20.5 µM | > 93.7 | > 72.4 | > 100 | > 100 | 12 | 39.6 | 3.96 µM and 9.59 µM | > 62.5 | 7.06 µM and 12.9 µM | > 89 | > 71.4 | 8.3 µM and > 72.6 µM |  |  |  |  |  |
| Fc1ccc(-c2nn3c(COc4ccc(Cl)cc4Cl)nnc3s2)cc1Oc1ccccc1 | 27.8 | > 100 | 13.6 µM | 26.4 | > 100 | 55.4 | > 100 |  |  | 20.7 µM | 62.2 | 11.5 µM | 23.7 | 27.3 | 25.6 µM | 43.2 | 14.1 | 12.9 |  |  |
| COc1cc2c(cc1O)C1CC(CC3CCCCN31)OC(=O)/C=C\c1ccc(O)c-2c1 (stereo not given) |  | 54.2 |  | > 100 | > 100 |  | 39.7 |  | 36 |  | > 100 |  |  | > 100 | > 100 µM |  |  |  |  |  |
| COc1c(C)c(O)c2c(c1C)OC(c1ccccc1)CC2=O (stereo not given) |  | > 100 |  | > 100 | > 100 |  |  |  | > 100 |  | > 100 |  | > 100 | > 100 | > 100 µM |  |  |  | 75.5 |  |
| ClCCCCOC1CCCCO1 (stereo not given) |  | > 100 |  | > 100 | > 100 |  | > 100 |  | > 100 |  | > 100 |  | > 100 | > 100 | > 100 µM |  |  |  |  |  |
| NC(=O)c1cc([N+](=O)[O-])cc([N+](=O)[O-])c1 |  | > 100 |  | > 100 | > 100 |  | > 100 |  |  |  | > 100 |  | > 100 | > 100 | > 100 µM |  |  |  | > 100 |  |
| N=C1/C(=C2\Nc3ccccc3S2)CC(=O)N1c1ccc(SC(F)F)cc1 | 7.42 | > 100 | 18.7 µM | > 100 | > 100 | > 100 | > 100 |  |  | 3.75 µM | > 100 | 1.49 µM | 14.7 | > 100 | 29.7 µM | 0.347 | 6.98 | 2.74 | > 100 | 2.21 |
| CC12CC(=O)C3C(CCC4=CC(=O)CCC43C)C1CC=C2CC(=O)O (stereo not given) |  | > 100 |  | > 100 | > 100 |  | > 100 |  |  |  | > 100 |  | > 100 | > 100 | > 100 µM |  |  |  | > 100 |  |
| O=c1[nH]c(SCc2ccccc2[N+](=O)[O-])nc2nc[nH]c12 |  | > 100 |  | > 100 | > 100 |  | > 100 |  |  |  | > 100 |  | > 100 | > 100 | > 100 µM |  |  |  | > 100 |  |
| Fc1ccc(C2C3CCOc4c(ccc5ccccc45)C3=NN2c2ccccc2)cc1 (stereo not given) | > 60.2 | > 100 | > 100 µM | > 100 | > 100 | 43.9 | > 100 |  |  | 48.9 µM | > 100 | > 100 µM | > 100 | > 100 | > 100 µM | 9.34 | 88.6 | 56.1 | > 100 | 13.3 |
